Patent US9963496B2, “Stable glucagon analogues and use for treatment of hypoglycaemia” (Novo Nordisk A/S, priority 2014, dated 2018)
*1 amine or outer side, *2 acyl side, *3 side chain or, on linkers, in order; H or OH if unused. Where a SMILES comes first, the peptide text is derived from it. Side-chain parts run from the residue outwards. The star is where a group is joined. γGlu = O=C(O)[C@H](CCC(=O)[*:2])N[*:1]; Desaminohistidyl = O=C(CCc1c[nH]cn1)*

Columns and labels:
[1] = target: T1, human glucagon receptor (Homo sapiens, UniProt P47871); test: Assay (II)(b): glucagon receptor binding, 125I-glucagon displacement on isolated membranes (SPA); details: displacement of 125I-glucagon, membranes of BHK cells with human glucagon receptor, 2 h at 25° C.; read-out: IC50 hGlucagonR
T1 construct: expressed in transfected cells; host or cells: BHK cells, clone BHK hGCGR A3*25; isolated membranes
T1 sequence (P47871 26-477): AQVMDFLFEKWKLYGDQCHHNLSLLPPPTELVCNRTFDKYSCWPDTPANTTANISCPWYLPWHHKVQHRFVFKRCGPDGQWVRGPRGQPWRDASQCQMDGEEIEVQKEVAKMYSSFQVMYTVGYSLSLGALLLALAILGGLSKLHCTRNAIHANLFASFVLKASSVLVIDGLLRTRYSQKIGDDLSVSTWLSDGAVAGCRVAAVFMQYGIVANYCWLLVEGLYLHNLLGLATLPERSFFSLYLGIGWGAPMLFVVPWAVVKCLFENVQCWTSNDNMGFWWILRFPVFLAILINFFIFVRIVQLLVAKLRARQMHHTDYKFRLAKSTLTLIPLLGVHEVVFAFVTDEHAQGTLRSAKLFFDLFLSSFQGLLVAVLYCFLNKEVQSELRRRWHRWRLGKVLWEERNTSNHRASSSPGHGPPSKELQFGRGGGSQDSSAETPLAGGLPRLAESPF
Description: (b) Glucagon Receptor Binding
The purpose of this assay was to test the in vitro receptor binding activity of the glucagon derivatives of the invention. The receptor binding activity is a measure of affinity of a derivative for the human glucagon receptor.
The receptor binding of each compound to the human glucagon receptor was measured in a displacement binding assay. In this type of assay a labelled ligand (in this case 125I-glucagon) is bound to the receptor. Each derivative is added in a series of concentrations to isolated membranes containing the human glucagon receptor and displacement of the labelled ligand is monitored. The receptor binding is reported as the concentration at which half of the labelled ligand is displaced from the receptor, the IC50 value.
HME buffer consisted of 25 mM HEPES, 2 mM MgCl2 and 1 mM EDTA, and pH was adjusted to 7.4. Binding buffer consisted of 50 mM HEPES supplemented with 5 mM MgCl2, 1 mM CaCl2, 0.02% Tween 20 and 0.1% Ovalbumin, and pH was adjusted to 7.4.
The cells used in this assay (clone BHK hGCGR A3*25) were BHK cells stable transfected with an expression plasmid containing the cDNA encoding the human glucagon receptor.
The cells were grown at 5% CO2 in DMEM, 10% fetal calf serum, 1% Pen/Strep (Penicillin/Streptomycin) and 1.0 mg/mL of the selection marker G418. To make a membrane preparation the cells were grown to approximately 80% confluence. The cells were washed twice in phosphate-buffered saline and harvested. The cells were pelleted using a brief centrifugation and the cell pellet was kept on ice. The cells were lysed by adding approx. 5 mL HME buffer, mix by pipetting and snap freeze in liquid nitrogen. The cell lysate was quickly thawed and HME buffer added to 10 mL. The cell pellet was homogenised with an ULTRA-THURRAX dispersing instrument for 20-30 seconds. The homogenate was centrifuged at 20,000×G, 4° C. for 10 minutes. The pellet was resuspended (homogenised) in 1-2 mL HME buffer. The protein concentration was determined. The membranes were aliquoted and snap frozen in liquid nitrogen and stored at minus 80° C.
• 1. For the receptor binding assay 50 μl of the assay buffer was added to each well of an assay plate. • 2. Test compounds were serially diluted to give the following concentrations: 8×10 EE-7 M, 8×10 EE-8 M, 8×10 EE-9 M, 8×10 EE-10 M, 8×10 EE-11 M, 8×10 EE-12 M and 8×10 EE-13 M. Twenty-five μl were added to appropriate wells in the assay plate. • 3. Cell membrane aliquots were thawed and diluted to their working concentration. Fifty μl were added to each well in the assay plate. • 4. WGA SPA beads were suspended in assay buffer at 20 mg/mL. The suspension was diluted to 10 mg/mL in assay buffer just prior to addition to the assay plate. Fifty μl were added to each well in the assay plate. • 5. The incubation was started by adding 25 μl of 480 pM solution of [125I]-glucagon to each well of the assay plate. A 25 μl aliquot was reserved for measuring total counts/well. • 6. The assay plate was incubated for 2 h at 25° C. • 7. The assay plate was centrifuged for 10 min at 1500 rpm. • 8. The assay plate was read in a Packard TopCount NXT instrument. Calculations
The data from the TopCount instrument were transferred to GraphPad Prism software. The software averaged the values for the replicates and performed a non-linear regression.

[2] = physchem; assay type: physicochemical; details: pH 7.5
Procedure, shortened: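 Peptide at 250 μM in 10 mM HEPES pH 7.5 with 1 μM Thioflavin T, incubated at 37° C with 960 rpm orbital shaking. ThT fluorescence (ex 444/em 485 nm) read every 20 min; lag-time (t0−2τ) and kapp (1/τ) from curve fit. Recovery is post-assay supernatant peptide by RP-HPLC as % of initial.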

Row | Compound | IC50 [1] | recovery at 250 μM [2]
1 | CC(=O)N[C@@H](CCC(=O)N[C@@H](CCC(=O)N[C@@H](CCC(=O)N[C@@H](CCC(=O)NCCCC[C@H](NC(=O)[C@@H](NC(=O)[C@H](Cc1ccccc1)NC(=O)[C@H](CC(=O)O)NC(=O)[C@H](CCC(N)=O)NC(=O)[C@H](C)NC(=O)[C@H](CCCNC(=N)N)NC(=O)[C@H](CCCNC(=N)N)NC(=O)[C@H](CC(C)C)NC(=O)[C@H](CC(=O)O)NC(=O)[C@H](CC(C)C)NC(=O)[C@H](Cc1ccc(O)cc1)NC(=O)[C@H](CCCCN)NC(=O)[C@H](CO)NC(=O)[C@H](Cc1ccc(O)cc1)NC(=O)[C@H](CC(=O)O)NC(=O)[C@H](CO)NC(=O)[C@@H](NC(=O)[C@H](Cc1ccccc1)NC(=O)[C@@H](NC(=O)CNC(=O)[C@H](Cc1c[nH]cn1)NC(=O)[C@H](CO)NC(=O)CCc1c[nH]cn1)[C@@H](C)O)[C@@H](C)O)C(C)C)C(=O)N[C@@H](Cc1c[nH]c2ccccc12)C(=O)N[C@@H](CC(C)C)C(=O)N[C@@H](CC(C)C)C(=O)N[C@@H](CO)C(=O)N[C@H](C(=O)O)[C@@H](C)O)C(=O)O)C(=O)O)C(=O)O)C(=O)O [Example 9, N^ϵ24-[(4S)-4-[[(4S)-4-[[(4S)-4-[[(4S)-4-acetamido-4-carboxybutanoyl]amino]-4-carboxybutanoyl]amino]-4-carboxybutanoyl]amino]-4-carboxybutanoyl]-[Imp1, His3, Leu16, Lys24, Leu27, Ser28]-Glucagon] (Desaminohistidyl-SHGTFTSDYSKYLDLRRAQDFVK([γGlu-γGlu-γGlu-γGlu-Ac])WLLST-OH) | 0.5 nM | 100%
2 | CC(=O)N[C@@H](CCC(=O)N[C@@H](CCC(=O)N[C@@H](CCC(=O)N[C@@H](CCC(=O)NCCCC[C@H](NC(=O)[C@@H](NC(=O)[C@H](Cc1ccccc1)NC(=O)[C@H](CCC(=O)O)NC(=O)[C@H](CCC(N)=O)NC(=O)[C@H](C)NC(=O)[C@H](CCCNC(=N)N)NC(=O)[C@H](CCCNC(=N)N)NC(=O)[C@H](CO)NC(=O)[C@H](CCC(=O)O)NC(=O)[C@H](CC(C)C)NC(=O)[C@H](Cc1ccc(O)cc1)NC(=O)[C@H](CCCCN)NC(=O)[C@H](CO)NC(=O)[C@H](Cc1ccc(O)cc1)NC(=O)[C@H](CC(=O)O)NC(=O)[C@H](CO)NC(=O)[C@@H](NC(=O)[C@H](Cc1ccccc1)NC(=O)[C@@H](NC(=O)CNC(=O)[C@H](Cc1c[nH]cn1)NC(=O)[C@H](CO)NC(=O)CCc1c[nH]cn1)[C@@H](C)O)[C@@H](C)O)C(C)C)C(=O)N[C@@H](Cc1c[nH]c2ccccc12)C(=O)N[C@@H](CC(C)C)C(=O)N[C@@H](CC(C)C)C(=O)N[C@@H](CO)C(=O)N[C@H](C(=O)O)[C@@H](C)O)C(=O)O)C(=O)O)C(=O)O)C(=O)O [Example 6, N^ϵ24-[(4S)-4-[[(4S)-4-[[(4S)-4-[[(4S)-4-acetamido-4-carboxybutanoyl]amino]-4-carboxybutanoyl]amino]-4-carboxybutanoyl]amino]-4-carboxybutanoyl]-[Imp1, His3, Glu15, Glu21, Lys24, Leu27, Ser28]-Glucagon] (Desaminohistidyl-SHGTFTSDYSKYLESRRAQEFVK([γGlu-γGlu-γGlu-γGlu-Ac])WLLST-OH) | 1.8 nM | 101%
